According to the NIST ThermoML archive (doi:10.1021/je900733j):

What was measured:
[1] = xn = mol fraction of the nth substance listed; details: 101 kPa, Liquid
[2] = 101 kPa, Liquid

CCCCn1cc[n+](C)c1.[Cl-] [1-butyl-3-methylimidazolium chloride] + CC#N
mass density [kg/m3], [1]
Details | x1 = 0.0303 | x1 = 0.0797 | x1 = 0.1308 | x1 = 0.1806 | x1 = 0.235 | x1 = 0.2914 | x1 = 0.3717 | x1 = 0.439
293.15 K | 815.47 | 859.07 | 894.46 | 922.76 | 948.31 | 970.09 | 995.09 | 1012.49
298.15 K | 810.4 | 854.38 | 890.07 | 918.62 | 944.36 | 966.32 | 991.52 | 1009.08
303.15 K | 805.29 | 849.67 | 885.68 | 914.46 | 940.39 | 962.55 | 987.95 | 1005.66
308.15 K | 800.18 | 844.95 | 881.27 | 910.3 | 936.47 | 958.78 | 984.38 | 1002.25
313.15 K | 795.05 | 840.21 | 876.86 | 906.14 | 932.51 | 955.02 | 980.83 | 998.86
318.15 K | 789.88 | 835.48 | 872.45 | 901.98 | 928.57 | 951.26 | 977.28 | 995.46

CN(C)C=O [dimethylformamide]
[2]
Details | mass density [kg/m3]
293.15 K | 948.63
298.15 K | 943.86
303.15 K | 939.08
308.15 K | 934.29
313.15 K | 929.48
318.15 K | 924.68

CC#N [acetonitrile] + CCCCn1cc[n+](C)c1.[Cl-]
[1], x2 = 0
Details | mass density [kg/m3]
293.15 K | 782.04
298.15 K | 776.64
303.15 K | 771.21
308.15 K | 765.75
313.15 K | 760.25
318.15 K | 754.73

CC#N [acetonitrile]
[2]
Details | mass density [kg/m3]
293.15 K | 782.04
298.15 K | 776.64
303.15 K | 771.21
308.15 K | 765.75
313.15 K | 760.25
318.15 K | 754.73

CO [methanol]
[2]
Details | mass density [kg/m3]
293.15 K | 791.3
298.15 K | 786.58
303.15 K | 781.86
308.15 K | 777.11
313.15 K | 772.33
318.15 K | 767.52

CCCCn1cc[n+](C)c1.[Cl-] [1-butyl-3-methylimidazolium chloride] + O
mass density [kg/m3], [1]
Details | x1 = 0.0121 | x1 = 0.0381 | x1 = 0.0819 | x1 = 0.1109 | x1 = 0.1399 | x1 = 0.2489 | x1 = 0.2977 | x1 = 0.4083
293.15 K | 1007.06 | 1024.73 | 1046.21 | 1055.73 | 1062.54 | 1076.98 | 1080.14 | 1084.32
298.15 K | 1005.53 | 1022.46 | 1043.25 | 1052.62 | 1059.39 | 1073.95 | 1077.15 | 1081.43
303.15 K | 1003.8 | 1020.07 | 1040.24 | 1049.46 | 1056.2 | 1070.89 | 1074.16 | 1078.53
308.15 K | 1001.89 | 1017.57 | 1037.17 | 1046.28 | 1052.99 | 1067.82 | 1071.15 | 1075.63
313.15 K | 999.81 | 1014.95 | 1034.06 | 1043.06 | 1049.76 | 1064.72 | 1068.14 | 1072.73
318.15 K | 997.57 | 1012.24 | 1030.89 | 1039.81 | 1046.48 | 1061.63 | 1065.09 | 1069.82

CN(C)C=O [dimethylformamide] + CCCCn1cc[n+](C)c1.[Cl-]
[1], x2 = 0
Details | mass density [kg/m3]
293.15 K | 948.63
298.15 K | 943.86
303.15 K | 939.08
308.15 K | 934.29
313.15 K | 929.48
318.15 K | 924.68

CCCCn1cc[n+](C)c1.[Cl-] [1-butyl-3-methylimidazolium chloride] + CO
mass density [kg/m3], [1]
Details | x1 = 0.0101 | x1 = 0.0506 | x1 = 0.1 | x1 = 0.1665 | x1 = 0.1951 | x1 = 0.2398 | x1 = 0.2991 | x1 = 0.3771 | x1 = 0.482
293.15 K | 805.87 | 852.64 | 894.1 | 935.48 | 949.82 | 968.61 | 989.02 | 1010.45 | 1031.45
298.15 K | 801.3 | 848.46 | 890.18 | 931.83 | 946.25 | 965.16 | 985.68 | 1007.23 | 1028.33
303.15 K | 796.71 | 844.24 | 886.26 | 928.17 | 942.69 | 961.71 | 982.33 | 1004.01 | 1025.22
308.15 K | 792.11 | 840.01 | 882.35 | 924.53 | 939.14 | 958.26 | 979.01 | 1000.8 | 1022.12
313.15 K | 787.49 | 835.76 | 878.44 | 920.9 | 935.6 | 954.83 | 975.69 | 997.6 | 1019.03
318.15 K | 782.83 | 831.56 | 874.52 | 917.27 | 932.06 | 951.4 | 972.38 | 994.41 | 1015.96

CO [methanol] + CCCCn1cc[n+](C)c1.[Cl-]
[1], x2 = 0
Details | mass density [kg/m3]
293.15 K | 791.3
298.15 K | 786.58
303.15 K | 781.86
308.15 K | 777.11
313.15 K | 772.33
318.15 K | 767.52

CCCCn1cc[n+](C)c1.[Cl-] [1-butyl-3-methylimidazolium chloride] + CN(C)C=O
mass density [kg/m3], [1]
Details | x1 = 0.0332 | x1 = 0.0835 | x1 = 0.1303 | x1 = 0.1822 | x1 = 0.2289 | x1 = 0.3069 | x1 = 0.3879 | x1 = 0.4488
293.15 K | 961.92 | 978 | 990.54 | 1002.71 | 1012.04 | 1025.51 | 1037.1 | 1044.53
298.15 K | 957.33 | 973.63 | 986.33 | 998.67 | 1008.12 | 1021.78 | 1033.54 | 1041.06
303.15 K | 952.73 | 969.25 | 982.13 | 994.62 | 1004.21 | 1018.05 | 1029.98 | 1037.61
308.15 K | 948.12 | 964.87 | 977.91 | 990.58 | 1000.3 | 1014.34 | 1026.42 | 1034.18
313.15 K | 943.52 | 960.48 | 973.71 | 986.54 | 996.4 | 1010.63 | 1022.89 | 1030.77
318.15 K | 938.89 | 956.09 | 969.5 | 982.51 | 992.5 | 1006.94 | 1019.36 | 1027.36
